From ChEMBL document CHEMBL1201862, “PubChem BioAssay data set” (2004)
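Compound exposure: 48 hours, 5 concentrations, 96-well plates. GI50 = concentration required for 50% inhibition of growth.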 Active and inactive are the calls of the source. No stated cut-off is given here; in the data, active = GI50 up to about 1.1 µM and inactive = higher.

Assays:
Assay in all cases: growth of human tumour cells (NCI), 48 h
DMS-273 = tested on: DMS-273
NCI/ADR-RES = tested on: NCI/ADR-RES
SNB-78 = tested on: SNB-78
LXFL 529 = tested on: LXFL 529
RXF 631 = tested on: RXF 631
PC-3 = tested on: PC-3
BT-549 = tested on: BT-549
MDA-MB-435 = tested on: MDA-MB-435

Row | SMILES | GI50 (DMS-273) | GI50 (NCI/ADR-RES) | GI50 (SNB-78) | GI50 (LXFL 529) | GI50 (RXF 631) | GI50 (PC-3) | GI50 (BT-549) | GI50 (MDA-MB-435)
1 | CC(=O)Nc1ccc(/C=C/c2ccc(NC(=O)Nc3ccc(/C=C/c4ccc(NC(C)=O)cc4S(=O)(=O)O)c(S(=O)(=O)O)c3)cc2S(=O)(=O)O)c(S(=O)(=O)O)c1 | > 87.9 µM (inactive) | > 100 µM (inactive) | > 100 µM (inactive) | – | – | – | – | –
2 | CC(=O)OC1CC2(O)C(CCC3(C)C(c4ccc(=O)oc4)CCC32O)C2(C)CCC(O)C=C12 (stereo unspecified) | 0.005 µM (active) | 0.0125 µM (active) | 0.00989 µM (active) | – | – | – | – | –
3 | COc1ccc(C(=O)Cc2cc(OC)ccc2OC)cc1 | > 100 µM (inactive) | – | 42.4 µM (inactive) | > 100 µM (inactive) | > 100 µM (inactive) | – | – | –
4 | CCP(=S)(CC)CCl | – | > 100 µM (inactive) | – | – | – | > 100 µM (inactive) | – | –
5 | CN1CN(C(=O)N2CN(C)C(=O)N(C)C2)CN(C)C1=O | – | – | > 100 µM (inactive) | > 100 µM (inactive) | – | – | – | –
6 | CC(=O)OC1CC[C@@]2(C)C(=CC[C@@H]3[C@@H]2CC[C@]2(C)Nc4nn(S(C)(=O)=O)cc4C[C@@H]32)C1 (stereo partly specified) | – | 29.9 µM (inactive) | – | – | – | 28.2 µM (inactive) | 20.3 µM (inactive) | 20 µM (inactive)
7 | CC(C(=O)OCc1ccccc1)N(Cc1ccccc1)Cc1ccccc1 (stereo unspecified) | 57.9 µM (inactive) | – | > 100 µM (inactive) | > 100 µM (inactive) | – | – | – | –
8 | CC1(C)CC2(CC(C)(C)N1O)NC(=O)OC2=O | > 100 µM (inactive) | > 100 µM (inactive) | > 100 µM (inactive) | – | – | – | – | –
9 | Cc1cc(O)nc(NN2C(Cl)C(=O)C2c2c(O)ccc3ccccc23)n1 (stereo unspecified) | 16.4 µM (inactive) | – | 20.1 µM (inactive) | 15.2 µM (inactive) | – | – | – | –
10 | COC(=O)C1=C(O)C(C(=O)OC)[C@@]2(O)[C@@H](C(=O)OC)[C@H](C)[C@@H](C)[C@@H]1[C@@H]2C(=O)OC (stereo partly specified) | – | – | – | – | – | – | 37.5 µM (inactive) | 17.9 µM (inactive)
11 | CC[C@@]1(O)C[C@H](OC2CC(N(C)C)C(OC3CC(O)C(OC4CC(O)C(O)C(C)O4)C(C)O3)C(C)O2)c2c(cc3c(c2O)C(=O)c2c(O)ccc(O)c2C3=O)[C@H]1C(=O)OC (stereo partly specified) | 0.0108 µM (active) | 0.625 µM (active) | 0.0776 µM (active) | – | – | – | – | –
12 | O=C(/N=N/c1cc(Cl)ccc1Cl)NNc1cc(Cl)ccc1Cl | – | 22 µM (inactive) | – | – | – | 10.9 µM (inactive) | > 10 µM (inactive) | 13.7 µM (inactive)
13 | Cc1ccc(C(=O)Nc2ncn(C3CC(O)C(CO)O3)c(=O)n2)cc1 (stereo unspecified) | > 100 µM (inactive) | > 100 µM (inactive) | > 65.5 µM (inactive) | – | – | – | – | –
14 | Cc1ccc(C(=O)N/N=C(\N=N\c2cccc(C)c2)c2ccc(N(CCC#N)CCC#N)cc2C)cc1 | – | > 100 µM (inactive) | – | – | – | 58.3 µM (inactive) | – | 26.4 µM (inactive)
15 | CCOC(=O)C1=NN(c2ccccc2)C2=CC(C)=NN(C)C(=S)N21 | – | > 100 µM (inactive) | – | – | – | > 100 µM (inactive) | > 100 µM (inactive) | > 100 µM (inactive)
